The Log D is the decadic logarithm of the distribution of all forms, ionised or not, between an organic phase and buffer at a given pH. A lower Log D goes with lower lipophilicity.

Several values for one entry are separate records, joined by “and”; a condition that tells them apart may be missing. Equal entries are not always repeated.

Data set [1] in a line: Partition coefficient (log D), 1-octanol / PBS. The data set is classed as physicochemical. As to conditions: 1-octanol / PBS (pH 7.4). The protocol: Once the precursors were made, the tetrazine constructs were then radiolabeled via incubation with [^64Cu]—CuCl2 for 10 minutes at room temperature in 200 mM NH4OAc, pH 5.0 and purified via reverse-phase C18 HPLC (tR=8.7 min for ^64Cu-Tz-SarAr and 9.7 min for ^64Cu-Tz-PEG7NOTA; FIGS. 6-9). In both cases, the identity of the radiolabeled product was confirmed via co-injection of unlabeled ^natCu-Tz-SarAr and ^natCu-Tz-PEG7-NOTA standards. Ultimately, ^64Cu-Tz-PEG7NOTA was prepared in greater than 99% radionuclidic purity, 78±6% decay-corrected isolated yield, and a specific activity of 323±37 mCi/μmol (n=6). Similarly, ^64Cu-Tz-SarAr was synthesized in greater than 99% radionuclidic purity, 79±7% decay-corrected isolated yield, and a specific activity of 310±36 mCi/μmol (n=6). The ^64Cu-Tz-NOTA radioligand was synthesized, radiolabeled, and purified as previously reported by Zeflis et al. J. Nucl. Med. 2013, 54, 1389-1396, which is hereby incorporated by reference in its entirety. In order to probe the influence of the structural changes on solubility, the partition coefficients of the various radioligands were determined using PBS (pH 7.4) and 1-octanol (Table 1). […] For example, the replacement of NOTA with SarAr rendered ^64Cu-Tz-SarAr (log D=−2.08±0.06) more hydrophobic than ^64Cu-Tz-NOTA (log D=−2.54±0.1).
^64Cu-Tz-PEG7-NOTA, ^64Cu-Tz-NOTA, or ^64Cu-Tz-SarAr (1 μCi) was added to a mixture of 3 mL PBS (pH 7.4) and 3 mL 1-octanol. The resulting mixture was then vortexed thoroughly for 10 minutes and subsequently centrifuged at 1,000 rpm for 10 min. 1 mL of each layer (PBS and 1-octanol) was then collected, and the amount of radioactivity in each sample was counted on a gamma counter calibrated for ^64Cu. The partition coefficient (log D) was calculated using the formula: Log D=log10[(countsoctanol)/(countsPBS] All experiments were performed in triplicate. Reaction of ^64Cu-Tz Radioligands with huA33-TCO

Data set [2] can be described thus: Stability of ^64Cu-labeled tetrazines in PBS (pH 7.4) at 37° C. It counts as physicochemical. The conditions noted are these: PBS pH 7.4, 37° C. The procedure: (§1) Next, the aqueous and serum stabilities were determined via incubation at 37° C. (Tables 2-3). […] For example, after a 4 h incubation, 77.8±3.5% and 81.2±3.7% of ^64Cu-Tz-PEG7-NOTA and ^64Cu-Tz-SarAr, respectively, remained intact. Importantly, the release of ^64Cu^2+ from the chelators was not observed in any of the trials. Despite the rates of decomposition, the speed of the IEDDA reaction was faster than short blood half-lives of these small molecules; therefore, the radioligands remained functional in vivo.
(§2) ^64Cu-Tz-PEG7-NOTA and ^64Cu-Tz-SarAr (1000 μCi) were incubated on an agitating thermomixer (300 rpm) at 37° C. in 500 μL of either PBS (pH 7.4) or human serum. At each prescribed time-point, 100 μL of the solution was removed and placed into a 1.7 mL microcentrifuge tube. For the PBS samples, the compound was injected directly onto the HPLC and analyzed using a gradient of 5:95 CH3CN:H2O (both with 0.1% TFA) to 95:5 CH3CN:H2O over 15 min. For the serum samples, 100 μL cold CH3CN was added to the serum, and the resultant mixture was vortexed and centrifuged at 10,000 rpm for 10 min. After this, the clear supernatant was removed, moved to a new 1.7 mL microcentrifuge tube, and centrifuged again at 10,000 rpm for 10 min. The clear supernatant from this second spin was then injected into the HPLC and analyzed using a gradient of 5:95 CH3CN:H2O (both with 0.1% TFA) to 95:5 CH3CN:H2O over 15 min. The residual protein from the centrifuge spins was checked for radioactivity, and only minimal residual activity remained (less than 1% of the starting ^64Cu for each ^64Cu-Tz-PEG7-NOTA and ^64Cu-Tz-SarAr). The fraction of intact ^64Cu-Tz-PEG7-NOTA or ^64Cu-Tz-SarAr was determined by integrating the peak corresponding to the compound (tR=9.7 and 8.7 minutes, respectively) and dividing by the integral over the whole HPLC run. Both the injection loop and column were monitored to detect the presence of residual activity. All experiments were performed in triplicate.

Data set [3] in a line: Stability of ^64Cu-labeled tetrazines in human serum at 37° C. The data set is classed as in vitro ADME. The procedure: as §1, §2

As for `O=C([O-])CN1CCN(CC(=O)[O-])CC(Cc2ccc(NC(=O)CCCC(=O)NCc3ccc(-c4nncnn4)cc3)cc2)N(CC(=O)[O-])CC1.[64Cu+2]` (centres unmarked) [^64Cu-Tz-NOTA], the log distribution coefficient (Log D) in data set [1] was −2.54±0.1 and −2.54 +/− 0.10. Also, the “% Intact (PBS)” value in data set [2] (2 h) is 91.6 +/− 1.9%. For the same compound, in data set [3] (2 h), the “% Intact (Serum)” value is recorded as 85.4 +/− 6.6%.

As to `O=C(O)CN1CCN(CC(=O)O)CC(Cc2ccc(NC(=S)NCCOCCOCCOCCOCCOCCOCCOCCNC(=O)CCCC(=O)NCc3ccc(-c4nncnn4)cc3)cc2)N(CC(=O)O)CC1.[64Cu]` (centres unmarked) [^64Cu-Tz-PEG7-NOTA], in data set [1], the log distribution coefficient (Log D) is −2.44±0.08 and −2.44 +/− 0.08. Further, the “% Intact (PBS)” value was 87.0±1.3% and 87.0 +/− 1.3% in data set [2] (2 h); 83.2±4.6% in data set [2] (4 h); 76.2 ± 2.6% in data set [2] (8 h). For the same compound, the “% Intact (Serum)” value is 84.7 +/− 4.8% and 84.7 ± 4.8% in data set [3] (2 h); 77.8±3.5% in data set [3] (4 h); 64.0 ± 6.5% in data set [3] (8 h).

Turning to `NC12CNCCNCC(NCc3ccc(CNC(=O)CCCC(=O)NCc4ccc(-c5nncnn5)cc4)cc3)(CNCCNC1)CNCCNC2.[64Cu+2]` [^64Cu-Tz-SarAr], the pH-dependent lipophilicity (Log D) in data set [1] is on record as −2.08 +/− 0.06. Also, the “% Intact (PBS)” value in data set [2] (2 h) was 94.7±0.6% and 94.7 +/− 0.6%; in data set [2] (4 h), 93.3±0.5%; in data set [2] (8 h), 89.7 ± 2.3%. Also, the “% Intact (Serum)” value in data set [3] (2 h) is 92.0 +/− 2.1% and 92.0 ± 2.1%; in data set [3] (4 h), 81.2±3.7%; in data set [3] (8 h), 67.7 ± 4.3%.

Source of the values: patent publication US11135320B2, “Radioligands for pretargeted pet imaging and methods of their therapeutic use” (priority 2015, dated 2021).
